# What was measured:
# EM9-XH5 cells = experiment: Intracellular NAD(P)H assay using XTT or MTS; assay type: cell-based, Chinese hamster; conditions: DMS 4 hours (XTT) or 2.5 hours (MTS) (FIG. 7A, B)
# Description: (§1) XTT^1) (2,3-bis[2-Methoxy-4-nitro-5-sulfophenyl]-2H-tetrazolium-5-carboxy-anilide inner salt) and MTS^2) (3-(4,5-dimethylthiazol-2-yl)-5-(3-carboxynethoxyphenyl)-2-(4-sulfophenyl)-2H-tetrazolium, inner salt), water-soluble tetrazolium salts, were used to measure the amount of intracellular NAD(P)H through the reduction to a water-soluble formazan dye. EM9-V and XH5 cells were seeded into 96-well plates and were cultured in 100 μL of medium with fetal bovine serum and antibiotics as described (10,000 cells per well). After a 30-minute incubation, cells were treated with DMS (dimethylsulfate) at indicated concentrations and 1/10 volume of either XTT with an electron coupling agents such as phenazine methosulfate (Sigma) or MTS with phenazine methosulfate (Promega). Cells in each well were further cultured for up to 4 hours. Either XTT or MTS produced a water-soluble yellow-colored formazan dye and the absorbance was recorded in a 96-well plate reader at 450 nm with a 650 nm reference filter.
# (§2) These cells were exposed to DMS at different concentrations for 2.5 or 4 hours. […] In addition, CHO cells were co-exposed to DMS and PARP inhibitor, 3-aminobenzamide (10 mM) and were applied 1 to 2 hours prior to the DMS treatment and kept in the medium during DMS exposure until the cells were analyzed.
# EM9-V cells [1] = experiment: Intracellular NAD(P)H assay using XTT or MTS; assay type: cell-based, Chinese hamster
# Description: as §1, §2
# [2] = system: EM9-XH5 cells (CHO EM9 cells expressing wild-type human XRCC1); experiment: Intracellular NAD(P)H assay with water-soluble tetrazolium salt WST-8 (CCK-8); assay type: cell-based, Chinese hamster
# Description: (§3) XRCC1-proficient and -deficient CHO cells (Taylor, et al. (2002) Mol. Cell. Biol. 22:2556-2563) were cultured as monolayers in alpha-minimal essential medium (INVITROGEN™, Carlsbad, Calif.) supplemented with 10% fetal bovine serum (Sigma-Aldrich, St. Louis, Mo.), 100 μg/mL penicillin, and 100 μg/mL streptomycin. Immortalized mouse embryonic fibroblasts derived from PART-1^+/+ and PARP-1^−/− were maintained in Dulbecco's modified Eagle's medium, 4.5 g/Liter glucose medium (INVITROGEN™, Carlsbad, Calif.) supplemented with 10% fetal bovine serum and 0.5% gentamicin (Schreiber, et al. (2002) J. Biol. Chem. 277:23028-23036). Human lymphoblastoid cells (GM15030, GM15061, GM15237, GM15268, GM15339, GM15349, GM15365, and GM15380; Coriell Cell Repositories, Camden, N.J.) were grown in RPMI 1640 medium (INVITROGEN™, Carlsbad, Calif.) supplemented with 15% fetal bovine serum (Sigma-Aldrich, St. Louis, Mo.), 100 μg/mL penicillin, and 100 μg/mL streptomycin. The cells were maintained in a humidified atmosphere of 5% CO2 and 95% air at 37° C.
# (§4) A water-soluble tetrazolium salt was used to measure the amount of intracellular NAD(P)H through the reduction to a formazan dye. The total amount of NAD(P)H within viable cells in the medium was determined periodically by a spectrophotometer. Cells were seeded into 96-well plates (CHO cells and mouse fibroblasts: 5×10^3 cells/well; lymphoblastoid cells: 15×10^3 cells/well) and were cultured in 100 μL of medium with fetal bovine serum and antibiotics as described. After a 30-minute incubation, cells were treated with MMS at indicated concentrations and 1/10 volume of CCK-8 solution (Dojindo Molecular Technology, Gaithersburg, Md.) which consisted of a water-soluble 2-(2-methoxy-4-nitrophenyl)-3-(4-nitrophenyl)-5-(2,4-disulfophenyl)-2H-tetrazolium monosodium salt (WST-8; 5 mM) and 1-Methoxy-5-methylphenazinium methylsulfate (1-Methoyx PMS; 0.2 mM) as an electron mediator. Cells in each well were further cultured for up to 4 hours. WST-8 produced a water-soluble yellow-colored formazan dye through its bioreduction either in the presence of an electron carrier, such as 1-Methoxy PMS, Diaphorase, a flavoenzyme, or directly by NAD(P)H. Therefore, the reduction of tetrazolium salts predominantly depends on the amount of intracellular NAD(P)H. The amount of formazan dye produced by the living cells in the medium was determined approximately every 30 minutes by a spectrophotometer and compared to the values of the control. Absorbance was recorded in a 96-well plate reader at 450 nm with a 650 nm reference filter. A medium blank was prepared with only medium and CCK-8 reaction solution. Decreases in the intracellular NAD(P)H were assessed by comparing the absorbance of a well containing cells treated with MMS against that of a well with cells treated with phosphate-buffered saline (PBS) only.
# (§5) XRCC1 functions as a scaffold for interaction with other base excision repair-associated proteins including human AP endonuclease (APE1), DNA Pol-β, DNA Ligase III, Polynucleotide Kinase (PNK), and PARP-1 (Caldecott, et al. (1996) Nucl. Acids Res. 24:4387-4394; Whitehouse, et al. (2001) Cell 104:1-11; Kubota, et al. (1996) EMBO J. 15:6662-6670; Caldecott, et al. (1994) Mol. Cell. Biol. 14:68-76; Caldecott, et al. (1995) Nucl. Acids Res. 23:4836-4843) and is required for efficient single strand break repair and genetic stability in mammalian cells. Rodent cells lacking XRCC1 are hypersensitive to DNA damaging agents (Whitehouse, et al. (2001) Cell 104:1-11; Kubota, et al. (1996) EMBO J. 15:6662-6670; Caldecott, et al. (1994) Mol. Cell. Biol. 14:68-76). […]
# [3] = system: EM9-V cells (XRCC1-deficient CHO EM9 cells expressing empty vector); experiment: as above; assay type: cell-based, Chinese hamster
# Description: as §3, §4, §5
# [4] = system: PARP-1-/- immortalized embryonic fibroblasts; experiment: Intracellular NAD(P)H assay (WST-8) in PARP-1-/- fibroblasts; assay type: cell-based, mouse; conditions: PARP-1-/- cells, MMS 4 hours, compared with PARP-1+/+ cells (FIG. 4B)
# Description: (§6) XRCC1-proficient and -deficient CHO cells (Taylor, et al. (2002) Mol. Cell. Biol. 22:2556-2563) were cultured as monolayers in alpha-minimal essential medium (INVITROGEN™, Carlsbad, Calif.) supplemented with 10% fetal bovine serum (Sigma-Aldrich, St. Louis, Mo.), 100 μg/mL penicillin, and 100 μg/mL streptomycin. Immortalized mouse embryonic fibroblasts derived from PART-1^+/+ and PARP-1^−/− were maintained in Dulbecco's modified Eagle's medium, 4.5 g/Liter glucose medium (INVITROGEN™, Carlsbad, Calif.) supplemented with 10% fetal bovine serum and 0.5% gentamicin (Schreiber, et al. (2002) J. Biol. Chem. 277:23028-23036). […]
# (§7) A water-soluble tetrazolium salt was used to measure the amount of intracellular NAD(P)H through the reduction to a formazan dye. The total amount of NAD(P)H within viable cells in the medium was determined periodically by a spectrophotometer. […] WST-8 produced a water-soluble yellow-colored formazan dye through its bioreduction either in the presence of an electron carrier, such as 1-Methoxy PMS, Diaphorase, a flavoenzyme, or directly by NAD(P)H. Therefore, the reduction of tetrazolium salts predominantly depends on the amount of intracellular NAD(P)H. The amount of formazan dye produced by the living cells in the medium was determined approximately every 30 minutes by a spectrophotometer and compared to the values of the control. […]
# EM9-V cells [5] = assay type: cell-based, Chinese hamster; conditions: immediately after 1 hour MMS treatment (FIG. 5D)
# Description: A direct comparison was conducted between the method of the invention measuring NAD(P)H and the Comet assay for the detection of single strand breaks. Slides for the Comet assay were prepared using well-known methods (Tennant, et al. (2001) Mutat. Res. 493:1-10). Briefly, slides were dipped into agarose and dried at 60° C. Low melting point agarose (0.5%) was prepared and held at 42° C. Cell suspensions (1×10^4 cells/10 μL) were mixed with 190 μL low melting point agarose. Ninety μL of this suspension was pipetted onto each of two slides and covered with a coverglass. Each slides was placed on ice for 5 minutes, the coverglass was removed, 90 μL of low melting point agarose was pipetted onto each slide, a coverglass was reapplied, and slides were returned to the ice. After 5 minutes, the coverglass was removed and the slides were placed in lysis buffer (pH 11) containing 2.5 M NaCl, 100 mM EDTA-2Na, 10 mM Tris, 1% Na Sarcosinate, 1% TRITON® X-100 and 10% dimethylsulfoxide for 20 minutes. Following lysis, the slides were placed in denaturation buffer (i.e., electrophoresis buffer; 300 mM NaOH, 1 mM EDTA, pH 13). […]
# Slides were stained using 35 μL of SYBR GREEN-1™ (MOLECULAR PROBES™, Eugene, Oreg.)(10× in Tris-EDTA buffer pH 8.0) and a coverglass was applied. […] Fifty cells from each of two slides were analyzed by a independent scorer who had no knowledge of the treatment. […]
# [6] = system: PARP-1+/+ immortalized embryonic fibroblasts; experiment: Intracellular NAD(P)H assay (WST-8) in PARP-1+/+ fibroblasts; assay type: cell-based, mouse; conditions: PARP-1+/+ cells, MMS 4 hours (FIG. 4A)
# Description: as §6, §7
# [7] = system: EM9-V and EM9-XH5 CHO cells; experiment: Trypan blue dye-exclusion assay (cell death); assay type: cell-based, Chinese hamster; conditions: MMS 0, 0.75, 1.5 mM for 1 and 4 hours; any concentration
# Description: Cell death was determined with trypan blue staining. Cells were treated with MMS at 0, 0.75, and 1.5 mM for 1 and 4 hours. After trypsinization, cells were stained using a standard trypan blue dye-exclusion assay.
# [8] = system: Human lymphoblastoid cells (GM15030, GM15061, GM15237, GM15268, GM15339, GM15349, GM15365, GM15380); experiment: Intracellular NAD(P)H assay (WST-8) in lymphoblastoid cells; assay type: cell-based; conditions: eight healthy individuals, MMS 4 hours (FIG. 6A)
# Description: as §6, §7
smiles,measurement,setting,value
"COS(=O)(=O)OC [DMS, dimethylsulfate]",intracellular NAD(P)H significantly reduced by treatment with DMS,EM9-XH5 cells,not
same,intracellular NAD(P)H significantly reduced by treatment with DMS,"EM9-V cells [1]; DMS 4 hours (XTT) or 2.5 hours (MTS), dose-dependent (FIG. 7A, B)",significantly reduced
"O=C1NCCc2c(OCCCCN3CCCCC3)cccc21 [DPQ, 3,4-dihydro-5-[4-(1-piperidinyl)butoxy]-1(2H)-isoquinolinone]",block of MMS-induced decrease in intracellular NAD(P)H,"[2]; DPQ 90 μM applied 1 to 2 hours before and during MMS, 4 hours (FIG. 3B)",almost completely blocked
same,block of MMS-induced decrease in intracellular NAD(P)H,"[3]; EM9-V cells, DPQ 90 μM applied 1 to 2 hours before and during MMS, 4 hours (FIG. 3B)",almost completely blocked
"COS(C)(=O)=O [MMS, methyl methanesulfonate]",NAD(P)H on exposure to MMS,[4],more resistant to the decrease in NAD(P)H
same,MMS concentration at which increase in tail moment was detected (Comet assay),EM9-V cells [5],~50 µM
same,intracellular NAD(P)H on treatment with MMS,"[2]; MMS at different concentrations for 4 hours, dose-dependent (FIG. 2A)",significantly reduced
same,intracellular NAD(P)H on treatment with MMS,"[3]; EM9-V cells, MMS at different concentrations for 4 hours, dose-dependent (FIG. 2A)",significantly reduced
same,lowest MMS concentration at which decrease in intracellular NAD(P)H was detected,"[3]; EM9-V cells, at 1, 2 and 4 hours (FIG. 5A-C)",~10 µM
same,earliest time at which reduction of NAD(P)H was detected during MMS exposure,"[3]; EM9-V cells, real-time assay, read about every 30 minutes (FIG. 2B)",30 min
same,time for ratio of NAD(P)H in EM9-V versus EM9-XH5 cells to reach a plateau,[3]; as a function of exposure time with MMS (FIG. 2C),≤ 1 h
same,NAD(P)H on exposure to MMS,[6],reduced NAD(P)H
same,cell death (trypan blue exclusion) during MMS treatment,[7],no major cell death
same,sensitivity to MMS (NAD(P)H depletion) among lymphoblastoid cell lines,[8],wide variation in the sensitivity
"NC(=O)c1cccc(N)c1 [3-AB, 3-aminobenzamide]",block of MMS-induced decrease in intracellular NAD(P)H,"[2]; 3-AB 10 mM applied 1 to 2 hours before and during MMS, 4 hours (FIG. 3A)",almost completely blocked
same,block of MMS-induced decrease in intracellular NAD(P)H,"[3]; EM9-V cells, 3-AB 10 mM applied 1 to 2 hours before and during MMS, 4 hours (FIG. 3A)",almost completely blocked
same,protection from reduction in NAD(P)H upon exposure to MMS,[6]; 3-AB 10 mM,protected
same,block of DMS-induced decrease in intracellular NAD(P)H,"EM9-V cells [1]; 3-AB 10 mM applied 1 to 2 hours before and during DMS, XTT 4 hours or MTS 2.5 hours (FIG. 7A, B)",completely blocked
